Laboratory results taken from paper PMC8746528, “Novel Substituted Purine Isosteres: Synthesis, Structure-Activity Relationships and Cytotoxic Activity Evaluation” (Molecules, 2021).

Experiments:
[1] = system: HCT116 colon cancer cell line; assay: MTT cell viability assay, HCT116; type: cell-based; details: Homo sapiens, HCT-116, treatment 72 h and 96 h, mean ± SD of three experiments
Protocol: (§1) The human HCT116 colon cancer cell line and PC-3 prostate cancer cell line were obtained from the American Type Cell Culture (ATCC, Bethesda, Md). Both cell lines were grown in 75 cm^2 culture flasks at 37 °C in 5% CO2 using Roswell Park Memorial Institute 1640 medium (RPMI 1640, Gibco) and Dulbecco’s modified Eagle’s medium F/12 (DMEM/F-12, Gibco), respectively, containing 10% fetal bovine serum (FBS, Gibco). To test the inhibitory activities of compounds using a cell-based assay, MTT assay was performed for cell viability, as described previously. Briefly, HCT116 cells were plated at a density of 1500 per well, while PC-3 cells were plated at a density of 750 per well in a 96-well plate. After 24 h, cells were treated with the indicated compounds in a dose-dependent manner for 72 h and 96 h (all tested compounds provided clear solutions). MTT [3-(4,5-dimethylthiazol-2-yl)-2,5-diphenyltetrazolium bromide] (Sigma M-5655) was added at a final concentration of 0.5 mg/mL directly to each well for 4 h at 37 °C. The medium was aspirated, and the blue MTT formazan precipitate was dissolved in dimethyl sulfoxide (DMSO). Absorbance was determined in a Powerwave microplate spectrophotometer (Biotek Instruments, Inc.) at 540 nm. Viable cell numbers were determined by tetrazolium conversion to its formazan dye. The IC50 was calculated by Microsoft Excel equation and confirmed by GraphPad Prism (7.0). Each experiment was performed in triplicate and mean values ± SD are reported.

[2] = system: PC-3 prostate cancer cell line; assay: MTT cell viability assay, PC-3; type: cell-based; details: Homo sapiens, treatment 72 h and 96 h, mean ± SD of three experiments
Protocol: as §1

[3] = system: normal human fibroblasts (WI-38); assay: MTT cytotoxicity towards normal fibroblasts; type: cell-based; details: WI-38; for IC50: MTT, normal human fibroblasts
Protocol: as §1
Figure 1 Dose-response curves for the administration of 14b, 26b, 35b on HCT116, PC-3 and WI-38 cells, as assessed by the MTT assay. Results are expressed as a percentage of controls. Statistical analysis was performed in triplicate determination at p < 0.05.

Row | melting point | IC50 [1] | IC50 [2] | SMILES | cytotoxicity to normal cells in words [3] | IC50 [3]
1 | 88 to 89 °C | 5 ± 0.18 µM | 7 ± 0.4 µM | COc1ccc(Cn2cc(-c3ccccc3)c3ccnc(N4CCN(C)CC4)c32)cc1 [13a, 1-(4-Methoxybenzyl)-7-(4-methylpiperazin-1-yl)-3-phenyl-1H-pyrrolo[2,3-c]pyridine] | – | –
2 | > 250 °C | > 10 µM | > 10 µM | CN1CCN(c2ncnc3c(-c4ccccc4)c[nH]c23)CC1 [26e, 4-(4-Methylpiperazin-1-yl)-7-phenyl-5H-pyrrolo[3,2-d]pyrimidine] | – | –
3 | 209 to 210 °C | 2.35 ± 0.15 µM | 2.35 ± 0.05 µM | CN1CCN(c2nccc3c(-c4cccc(F)c4)c[nH]c23)CC1 [14f, 3-(3-Fluorophenyl)-7-(4-methylpiperazin-1-yl)-1H-pyrrolo[2,3-c]pyridine] | – | –
4 | – | > 10 µM | > 10 µM | CN1CCN(c2ncnc3c(-c4cccc(F)c4)n[nH]c23)CC1 [35f, 3-(3-Fluorophenyl)-7-(4-methylpiperazin-1-yl)-1H-pyrazolo[4,3-d]pyrimidine] | – | –
5 | 96 to 97 °C | > 10 µM | > 10 µM | COc1ccc(Cn2cc(-c3cccc(F)c3)c3ncnc(Nc4cc(OC)c(OC)c(OC)c4)c32)cc1 [24d, 7-(3-Fluorophenyl)-5-(4-methoxybenzyl)-N-(3,4,5-trimethoxyphenyl)-5H-pyrrolo[3,2-d]pyrimidin-4-amine] | – | –
6 | 187 to 188 °C | 4.5 ± 0.25 µM | 2.25 ± 0.35 µM | COc1ccc(Cn2cc(-c3ccccc3)c3ncnc(Nc4cc(OC)c(OC)c(OC)c4)c32)cc1 [24c, 5-(4-Methoxybenzyl)-N-(3,4,5-trimethoxyphenyl)-7-phenyl-5H-pyrrolo[3,2-d]pyrimidin-4-amine] | – | –
7 | 131 to 132 °C | > 10 µM | > 10 µM | COc1ccc(Cn2cc(-c3cccc(F)c3)c3ncnc(Nc4ccccc4)c32)cc1 [24b, 7-(3-Fluorophenyl)-5-(4-methoxybenzyl)-Ν-phenyl-5H-pyrrolo[3,2-d]pyrimidin-4-amine] | – | –
8 | 165 to 166 °C | > 10 µM | > 10 µM | COc1ccc(Cn2cc(-c3cccc(F)c3)c3ccnc(Nc4ccccc4)c32)cc1 [10b, 3-(3-Fluorophenyl)-1-(4-methoxybenzyl)-Ν-phenyl-1H-pyrrolo[2,3-c]pyridin-7-amine] | – | –
9 | 57 to 58 °C | > 10 µM | > 10 µM | COc1ccc(Cn2cc(-c3ccccc3)c3ncnc(Nc4ccccc4)c32)cc1 [24a, 5-(4-Methoxybenzyl)-Ν,7-diphenyl-5H-pyrrolo[3,2-d]pyrimidin-4-amine] | – | –
10 | – | > 10 µM | > 10 µM | CN1CCN(c2ncnc3c(-c4cccc(F)c4)c[nH]c23)CC1 [26f, 7-(3-Fluorophenyl)-4-(4-methylpiperazin-1-yl)-5H-pyrrolo[3,2-d]pyrimidine] | – | –
11 | 151 to 152 °C | > 10 µM | > 10 µM | COc1ccc(Cn2cc(-c3cccc(F)c3)c3ncnc(N4CCN(C)CC4)c32)cc1 [25b, 7-(3-Fluorophenyl)-5-(4-methoxybenzyl)-4-(4-methylpiperazin-1-yl)-5H-pyrrolo[3,2-d]pyrimidine] | – | –
12 | 150 to 151 °C | > 10 µM | > 10 µM | COc1ccc(Cn2cc(-c3ccccc3)c3ncnc(N4CCN(C)CC4)c32)cc1 [25a, 5-(4-Methoxybenzyl)-4-(4-methylpiperazin-1-yl)-7-phenyl-5H-pyrrolo[3,2-d]pyrimidine] | – | –
13 | – | 4.4 ± 0.35 µM | 9.3 ± 0.76 µM | COc1ccc(Cn2cc(-c3cccc(F)c3)c3ccnc(N4CCN(C)CC4)c32)cc1 [13b, 3-(3-Fluorophenyl)-1-(4-methoxybenzyl)-7-(4-methylpiperazin-1-yl)-1H-pyrrolo[2,3-c]pyridine] | – | –

The next lines start with the molecule.

Row | SMILES | melting point | IC50 [1] | IC50 [2] | cytotoxicity to normal cells in words [3] | IC50 [3]
14 | COc1cc(Nc2ncnc3c(-c4ccccc4)c[nH]c23)cc(OC)c1OC [26c, N-(3,4,5-Trimethoxyphenyl)-7-phenyl-5H-pyrrolo[3,2-d]pyrimidin-4-amine] | > 250 °C | 7.8 ± 0.45 µM | 9.7 ± 0.5 µM | – | –
15 | COc1ccc(Cn2cc(-c3ccccc3)c3ccnc(Nc4cc(OC)c(OC)c(OC)c4)c32)cc1 [10c, 1-(4-Methoxybenzyl)-Ν-(3,4,5-trimethoxyphenyl)-3-phenyl-1H-pyrrolo[2,3-c]pyridin-7-amine] | 136 to 137 °C | 9.4 ± 0.53 µM | 9.8 ± 0.25 µM | – | –
16 | c1ccc(Nc2ncnc3c(-c4ccccc4)n[nH]c23)cc1 [35a, N,3-Diphenyl-1H-pyrazolo[4,3-d]pyrimidin-7-amine] | – | 7.3 ± 0.62 µM | 4.7 ± 0.18 µM | – | –
17 | CN1CCN(c2ncnc3c(-c4ccccc4)n[nH]c23)CC1 [35e, 7-(4-Methylpiperazin-1-yl)-3-phenyl-1H-pyrazolo[4,3-d]pyrimidine] | – | > 10 µM | > 10 µM | – | –
18 | c1ccc(Nc2nccc3c(-c4ccccc4)c[nH]c23)cc1 [14a, Ν,3-Diphenyl-1H-pyrrolo[2,3-c]pyridin-7-amine] | 139 to 140 °C | 5 ± 0.1 µM | 0.215 ± 0.025 µM | rather cytotoxic to normal cells | < 10 µM
19 | COc1cc(Nc2ncnc3c(-c4cccc(F)c4)c[nH]c23)cc(OC)c1OC [26d, 7-(3-Fluorophenyl)-N-(3,4,5-trimethoxyphenyl)-5H-pyrrolo[3,2-d]pyrimidin-4-amine] | 139 to 140 °C | 8.7 ± 0.58 µM | 5.9 ± 0.37 µM | – | –
20 | c1ccc(Nc2ncnc3c(-c4ccccc4)c[nH]c23)cc1 [26a, Ν,7-Diphenyl-5H-pyrrolo[3,2-d]pyrimidin-4-amine] | > 250 °C | 2.75 ± 0.35 µM | 6.2 ± 0.23 µM | – | –
21 | COc1cc(Nc2ncnc3c(-c4ccccc4)n[nH]c23)cc(OC)c1OC [35c, 3-Phenyl-N-(3,4,5-trimethoxyphenyl)-1H-pyrazolo[4,3-d]pyrimidin-7-amine] | > 250 °C | 4.7 ± 0.25 µM | 5.7 ± 0.4 µM | – | –
22 | CN1CCN(c2nccc3c(-c4ccccc4)c[nH]c23)CC1 [14e, 7-(4-Methylpiperazin-1-yl)-3-phenyl-1H-pyrrolo[2,3-c]pyridine] | 220 to 221 °C | 2.85 ± 0.05 µM | 1.75 ± 0.25 µM | – | < 10 µM
23 | COc1ccc(Cn2cc(-c3cccc(F)c3)c3ccnc(Nc4cc(OC)c(OC)c(OC)c4)c32)cc1 [10d, 3-(3-Fluorophenyl)-1-(4-methoxybenzyl)-Ν-(3,4,5-trimethoxyphenyl)-1H-pyrrolo[2,3-c]pyridin-7-amine] | 93 to 94 °C | > 10 µM | > 10 µM | – | –
24 | COc1cc(Nc2ncnc3c(-c4cccc(F)c4)n[nH]c23)cc(OC)c1OC [35d, 3-(3-Fluorophenyl)-N-(3,4,5-trimethoxyphenyl)-1H-pyrazolo[4,3-d]pyrimidin-7-amine] | > 250 °C | > 10 µM | > 10 µM | – | –
25 | COc1cc(Nc2nccc3c(-c4ccccc4)c[nH]c23)cc(OC)c1OC [14c, N-(3,4,5-trimethoxyphenyl)-3-phenyl-1H-pyrrolo[2,3-c]pyridin-7-amine] | 153 to 154 °C | 0.72 ± 0.09 µM | 0.47 ± 0.12 µM | – | < 10 µM
26 | COc1ccc(Cn2cc(-c3ccccc3)c3ccnc(Nc4ccccc4)c32)cc1 [10a, 1-(4-Methoxybenzyl)-Ν,3-diphenyl-1H-pyrrolo[2,3-c]pyridin-7-amine] | 180 to 181 °C | 2.4 ± 0.1 µM | > 10 µM | – | –
